Measurements published in US20250160678A1, “GRAPHENE SENSOR SYSTEMS FOR C[…] ANALYSIS” (VOCxI Health, Inc., priority 2023, published 2025).

Experiment: elimination curves of cannabinoids after ingestion (FIG. 2)
Format: in vivo
Conditions: time of Test 2 (which may be two hours after cannabinoid ingestion)
Excerpt: Referring now to FIG. 1, a chart is shown of elimination curves of various cannabinoids. […] The relative amounts of cannabinoid metabolites (e.g., intermediate or final breakdown products of cannabinoid compounds in the body) will also vary with time after an ingestion event.
As previously referenced, the relative amounts of one cannabinoid compound to another and/or metabolites thereof will vary with time after an ingestion event because their different half-lives in the body. As such, a pattern of compounds captured with a system herein at time point that is closer to the time of ingestion will be different than a pattern of compounds captured at a later time. Referring now to FIG. 2, a chart is shown of elimination curves of various cannabinoids. […] In this example, exemplary test times are shown in the form of Test 1, Test 2, and Test 3, with each test being progressively spaced out farther away in time from the time of ingestion. […] Because of this, patterns as identified by systems herein are different at each test time. For example, at the time of Test 1 (which may be a half-hour after cannabinoid ingestion) the amount of CBN is roughly 80 to 90 percent of the amount of THC. In contrast, at the time of Test 2 (which may be two hours after cannabinoid ingestion) the amount of CBN is only about 50 percent of the amount of THC. […]

CCCCCc1cc(O)c2c(c1)OC(C)(C)c1ccc(C)cc1-2 [CBN, cannabinol]
amount of CBN as percent of the amount of THC: about 50%
